Measured values: patent publication US7241581B2, “Methods of identifying compounds that modulate IL-4 receptor-mediated IgE synthesis utilizing a c-MYC protein” (Rigel Pharmaceuticals, Inc., priority 2002, dated 2007)
Several values for one entry are separate records, joined by “and”; a condition that tells them apart may be missing. Equal entries are not always repeated.

These sequences were tested on germline ε promoter (assay: Functional profile of BR10A1 wt and mutants in the A5T4 reporter cell line). Conditions: A5T4 reporter line; first value column (separate experiment with its own WT control).
Format: cell-based, human
Description: Following infection, the library was enriched for cells expressing peptides that inhibit IL-4 induced ε transcription as generally outlined in the top half of FIG. 3 and sorted by FACS into single cell clones. The clones were then screened as generally illustrated in the lower half of FIG. 3. Briefly, for screening, each clone was divided into two populations and one population was treated with Dox (10 ng/ml). After 5 days, both populations were stimulated with IL-4 (final conc. 60 U/mL; PeptroTech, Inc.) and, after 3 more days, both populations were analyzed by FACS to measure BFP and GFP fluorescence. FACS data were converted to a “reporter ratio”, which is defined for this purpose as the ratio of the geometric mean of GFP fluorescence of the +IL-4/+Dox to the +IL-4/−Dox populations. Cells expressing a peptide that inhibits germline ε transcription have a reporter ratio of ≧1.1. A reporter ratio of ≧1.2 is indicative of strong inhibition.
The ability of peptide BR10A1 wt to inhibit germline ε transcription was confirmed in naive cells. Briefly, Phoenix cells were transfected with a retroviral vector encoding a BFP-BR10A1 wt peptide fusion as described in WO 99/58663 and WO 97/27213. Naïve A5T4 cells were infected with the resultant virions and grown for 3 days. The infected cells were stimulated with IL-4 (60 U/mL) and, after 3 days, the cells were assessed by FACS for BFP and GFP. […] The BFP fluorescence data corresponding to the BFP^+ and BFP^− populations are provided in Panel A. The GFP fluorescence data corresponding to the BFP^+ and BFP^− populations are presented in Panel B. The reporter ratio for this purpose is determined as the geometric mean of the GFP fluorescence of the BFP^− population divided by the geometric mean of the GFP fluorescence of the BFP^+ population. The reporter ratio for the BR10A1 in this re-infection assay was 1.27.
A collection of BR10A1 mutants was generated by replacing single or double amino acid residues in the sequence of BR10A1 wt with a different amino acid, typically an alanine or glycine, as described in copending application Ser. No.10/095,659, entitled Methods of Identifying Protein Targets, filed Mar. 8, 2002 . The functional profiles for the mutants derived from BR10A1 wt was obtained by constructing and screening for activity in the A5T4 reporter cell line in the manner described above. The activity of each mutant at the germline ε promoter is reflected in the reporter ratio as described above. The reporter ratios were the functional values that were used to develop the functional profiles. Measurement of the reporter ratios of the mutant peptides was carried out in a number of separate experiments, each time comparing the value of cells transfected with mutant peptide to that of cells transfected with control WT peptide done at the same time. The reporter ratios of the control WT peptide can vary depending upon a number of factors including the infectivity or the state of the infected cells at the time of infection.
TABLE 2 depicts the amino acid sequences (the dual alanine mutations are underlined) of the mutants tested and the measured reporter ratios when screening in the A5T4 reporter line.
Comparison of the interaction and functional profiles was performed by categorizing the mutants of BR10A1 based on the functional and interaction assays. Based on the reporter ratio, each mutant was categorized into one of four functional categories: (1) reduction of function (ROF); (2) loss of function (LOF); (3) increase of function (IOF) or (4) functionally neutral (N) as compared to the activity of the wild type peptide, here BR10A1 wt. As mentioned previously, cells expressing a peptide that inhibits germline ε transcription have reporter ratios of ≧1.1. Cells expressing a loss of function (LOF) mutant have a reporter ratio of <1.11. […] Functionally neutral mutants have reporter ratios that fall within ±50% of that of the BR10A1 wt peptide. […]

| Sequence | Reporter Ratio |
| --- | --- |
| MQAAESCITRSVEEGWGLFYLGP (peptide encoded by random oligo-BR10A1RR) [dual alanine mutant of BR10A1 wt] | 1.32 |

Same assay, conditions: A5T4 reporter line; fourth value column (separate experiment with its own WT control)

| Sequence | Reporter Ratio |
| --- | --- |
| MQRRESAATRSVEEAAGLFYLGP (peptide encoded by random oligo-BR10A1CIGW) [mutant of BR10A1 wt with alanines at CI and GW] | 1.08 and 1.15 |

Same assay, conditions: A5T4 reporter line; second value column (separate experiment with its own WT control)

| Sequence | Reporter Ratio |
| --- | --- |
| MQRRESAATRSVEEGWGLFYLGP (peptide encoded by random oligo-BR10A1CI) [dual alanine mutant of BR10A1 wt] | 1.16 |
| MQRRESCIAASVEEGWGLFYLGP (peptide encoded by random oligo-BR10A1TR) [dual alanine mutant of BR10A1 wt] | 1.62 |
| MQRRESCITRSVAAGWGLFYLGP (peptide encoded by random oligo-BR10A1EE) [dual alanine mutant of BR10A1 wt] | 1.39 |
| MQRRESCITRSVEEAAGLFYLGP (peptide encoded by random oligo-BR10A1GW) [dual alanine mutant of BR10A1 wt] | 1.23 |
| MQRRESCITRSVEEGWAAFYLGP (peptide encoded by random oligo-BR10A1GL) [dual alanine mutant of BR10A1 wt] | 1.44 |

Same assay, conditions: A5T4 reporter line; separate experiment with its own WT control

| Sequence | Reporter Ratio |
| --- | --- |
| AARRESCITRSVEEGWGLFYLGP (peptide encoded by random oligo-BR10A1MQ) [dual alanine mutant of BR10A1 wt] | 1.57 |
| MQRRAACITRSVEEGWGLFYLGP (peptide encoded by random oligo-BR10A1ES) [dual alanine mutant of BR10A1 wt] | 1.50 |
| MQRRESCITRSVEEGWGLAALGP (peptide encoded by random oligo-BR10A1FY) [dual alanine mutant of BR10A1 wt] | 1.34 |
| MQRRESCITRSVEEGWGLFY (peptide encoded by random oligo-BR10A1STOP) [C-terminally truncated form of BR10A1 wt] | 1.34 |

Same assay, conditions: based on reporter ratio; % change calculated after subtracting 1.0 from the ratios

| Sequence | functional category as compared to the activity of the wild type peptide |
| --- | --- |
| MQRRESAATRSVEEAAGLFYLGP (peptide encoded by random oligo-BR10A1CIGW) [mutant of BR10A1 wt with alanines at CI and GW] | LOF/ROF |
| MQRRESAATRSVEEGWGLFYLGP (peptide encoded by random oligo-BR10A1CI) [dual alanine mutant of BR10A1 wt] | ROF (a reduction of function (ROF) of mutant shows a >50% decrease in reporter ratio) |
| MQRRESCIAASVEEGWGLFYLGP (peptide encoded by random oligo-BR10A1TR) [dual alanine mutant of BR10A1 wt] | IOF (An increase of function mutant (IOF) shows a >50% increase in reporter ratio) |

What follows are sequences tested against T1, human c-Myc protein (Homo sapiens, UniProt P01106) (assay: Yeast two hybrid (YTH) interaction assay, β-galactosidase). Conditions: not given.
T1 construct: expressed in transfected cells; prey cDNA library made from the A5T4 reporter line (human BJAB B-cells)
Format: binding
Description: Potential binding partners for peptide BR10A1 wt were identified in a β-galactosidase yeast two-hybrid (YTH) assay using peptide BR10A1 wt as bait and a cDNA library constructed from the A5T4 reporter cell line as prey. Binding was assessed by β-galactosidase quantification using BetaFluor (Novagen) as a substrate. A negative interaction control (no cDNA fused downstream of the GAL4 activation domain sequence) was also run. A general outline of the YTH assay is illustrated in FIG. 5A. Following clustering, filtering to remove non-specific bait hits (e.g., GFP and BFP), singletons and clusters recognized by 10 or more cDNA baits (based upon historical YTH assays), and prioritization, 30 prey clones were identified as hits.
Potential targets identified in the YTH assay were reconfirmed as generally outlined in FIG. 6. The cDNA clones identified as hits in the YTH assay were purified and rescreened for interaction with the BR10A1 wt peptide in a YTH assay. The hit clones were also screened in a control assay for interaction with the BFP using a vector (pGBKT7) that contained only the BFP and not the BR10A1 peptide. At this stage, 25 putative target clones remained.
The interaction of BR10A1 wt peptide and its mutants with the clones identified as potential targets for the peptide BR10A1 wt was then quantified in a β-galactosidase YTH assay. The YTH assay was performed in the manner described above. A general outline of this YTH assay is illustrated in FIG. 5B. For each clone tested, an interaction profile was developed by comparing the β-galactosidase activity of each mutant to that of the wild type peptide as described above.
The interaction of selected IOF, ROF and LOF mutants with different polypeptides encoded by the putative target clones were quantified using the YTH assay described above. Based on the YTH assay, for each putative target, the mutants were categorized into the following four interaction categories: (1) reduction of interaction (ROI); (2) loss of interaction (LOI); (3) increase of interaction (IOI); and (4) interactionally neutral (N), by assessing the binding affinity ratio of the mutant peptide and the wild type peptide (β-gal activity of mutant/wild type) to the putative target. The selection criteria for categorizing the interactions is shown on FIG. 8.

T1 sequence (P01106 whole entry): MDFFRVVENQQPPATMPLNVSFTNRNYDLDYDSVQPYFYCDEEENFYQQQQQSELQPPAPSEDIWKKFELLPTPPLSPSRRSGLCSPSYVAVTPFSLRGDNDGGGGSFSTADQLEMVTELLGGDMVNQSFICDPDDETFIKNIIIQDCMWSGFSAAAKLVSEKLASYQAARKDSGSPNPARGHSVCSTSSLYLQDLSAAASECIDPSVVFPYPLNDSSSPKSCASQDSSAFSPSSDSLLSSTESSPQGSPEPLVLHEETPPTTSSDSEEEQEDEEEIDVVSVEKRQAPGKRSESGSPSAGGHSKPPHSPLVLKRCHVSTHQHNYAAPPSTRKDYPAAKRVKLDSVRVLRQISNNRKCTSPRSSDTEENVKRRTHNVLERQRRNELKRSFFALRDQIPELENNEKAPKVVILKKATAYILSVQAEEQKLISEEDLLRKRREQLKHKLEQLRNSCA

| Sequence | binding to human c-Myc protein in yeast two hybrid interaction assay |
| --- | --- |
| MQRRAACITRSVEEGWGLFYLGP (peptide encoded by random oligo-BR10A1ES) [dual alanine mutant of BR10A1 wt] | found to bind |
| MQRRESAATRSVEEGWGLFYLGP (peptide encoded by random oligo-BR10A1CI) [dual alanine mutant of BR10A1 wt] | found to bind |
| MQRRESCIAASVEEGWGLFYLGP (peptide encoded by random oligo-BR10A1TR) [dual alanine mutant of BR10A1 wt] | found to bind |
| MQRRESCITRSVEEGWAAFYLGP (peptide encoded by random oligo-BR10A1GL) [dual alanine mutant of BR10A1 wt] | found to bind |
